Laboratory results as given in ChEMBL document CHEMBL6083267, “Rational fragment-based design of compounds targeting the PWWP domain of the HRP family” (Eur J Med Chem, 2024).

target: PC4 and SFRS1-interacting protein (Homo sapiens, UniProt O75475)
Sequence (O75475 whole entry): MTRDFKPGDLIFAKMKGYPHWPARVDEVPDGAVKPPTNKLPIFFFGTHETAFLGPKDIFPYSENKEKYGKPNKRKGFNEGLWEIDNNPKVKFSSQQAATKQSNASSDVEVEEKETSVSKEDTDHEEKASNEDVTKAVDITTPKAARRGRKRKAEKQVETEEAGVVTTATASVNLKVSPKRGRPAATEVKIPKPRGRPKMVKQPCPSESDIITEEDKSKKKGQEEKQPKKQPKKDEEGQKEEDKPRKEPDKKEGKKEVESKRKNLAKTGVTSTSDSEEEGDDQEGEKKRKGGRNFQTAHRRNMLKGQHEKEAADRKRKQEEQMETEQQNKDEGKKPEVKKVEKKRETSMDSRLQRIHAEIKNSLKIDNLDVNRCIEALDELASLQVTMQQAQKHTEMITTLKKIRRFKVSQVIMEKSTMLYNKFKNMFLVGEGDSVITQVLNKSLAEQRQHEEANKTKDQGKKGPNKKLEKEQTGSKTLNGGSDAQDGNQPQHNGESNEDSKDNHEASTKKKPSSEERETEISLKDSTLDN
Description: Binding affinity to N-terminal His10-tagged LEDGF/P75 PWWP domain (1 to 110 residues) (unknown origin) expressed in Escherichia coli assessed as dissociation constant incubated for overnight by NMR analysis

Kd [µM] | Structure (SMILES)
147 | Nc1ccc(CNCc2cncc(Br)c2)cc1
363 | NC(=O)CCN1CCCC1c1ccccc1 (stereo unspecified)
590 | CCS(=O)(=O)c1ccccc1NC(=O)COc1cccc(CC(=O)O)c1
526 | CCS(=O)(=O)c1ccc(C2CCCCN2)cc1 (stereo unspecified)
700 | CCS(=O)(=O)c1ccccc1NC(=O)CCl

Structure (SMILES) | Kd [µM]
NCc1cncc(Br)c1 | 216
